The values that follow come from US5439933A (priority 1993, dated 1995).

Values after ≈ are worked out from the molar mass of the structure shown. “Also recorded” adds a separate entry of the source.

A short description of series [1]: Toxicity in mice, intraperitoneal. The following applies: mouse, in vivo, ip, Swiss Webster mice. The procedure:
In view of the cytotoxic effects observed with the new scytophycins, an experiment was performed to determine the toxicity level in an animal model. Various doses of tolytoxin were administered to Swiss Webster mice by the intraperitoneal route.

Series [2] has as its system Human epidermoid carcinoma (KB) cells. Nature of the series: Cell shape and nuclear protrusion by microscopy. The format is cell-based. The procedure:
In the following procedure new scytophycins were employed to cause nuclear protrusion in mammalian cells. Human epidermoid carcinoma (KB) cells were plated on plastic tissue-culture dishes in Dulbecco's modified Eagle's medium at 1×10^5 cells per 60 mm dish. The cell cultures were incubated overnight at 37° C. in a humidified atmosphere of 95% air and 5% carbon dioxide to allow the cells to settle and become attached. Following the incubation, tolytoxin or the appropriate vehicle control was added in a volume of not more than 35 μL per 5 mL of culture medium. After an additional incubation period ranging from 1 to 4 hours, the culture medium was removed and the cell layer washed twice with phosphate-buffered saline (PBS), pH 7.2. The washed cell layer was stained for 15 minutes with 0.01% acridine orange in PBS. Following staining, the cell suspension was washed for 15 minutes with two changes of PBS to remove unbound stain and photographed on a Zeiss IM-35 photomicroscope equipped with brightfield and epifluorescence optics.

For series [3], the system named is HEp-2 human epidermoid carcinoma cells. Nature of the series: Cell proliferation assay (cell counts), HEp-2. Type of series: cell-based. To be noted: Table 5, 72 hours. The procedure: (§1) Tolytoxin and the other new scytophycin compounds are potent anticancer and antifungal agents. The cytotoxicity of tolytoxin and other new scytophycin compounds was determined using a cell proliferation assay, which tested the effect of the compounds on increases in cell numbers.
(§2) Cell lines were grown in plastic dishes (Falcon) in Eagle's basal medium supplemented with 5% newborn calf serum (KB), Fisher's medium supplemented with 10% horse serum (L1210), Dulbecco's modified Eagle's medium supplemented with 5% heat-inactivated fetal calf serum (LoVo), minimal essential medium supplemented with 2% heat-inactivated chicken serum (HEp-2), RPMI-1640 supplemented with 10% heat-inactivated fetal calf serum (T-47D, COLO-201) or 20% heat-inactivated fetal calf serum (HL-60, KATO-III), or McCoy's 5A supplemented with 10% heat-inactivated fetal calf serum (HBL-100). All cell culture media were supplemented with 50 μg/ml gentamycin sulfate. The cultures were incubated at 37° C. in a humidified atmosphere containing 5% carbon dioxide.
(§3) Cultures were exposed to graded concentrations of tolytoxin and reincubated for 72 hours in the presence of tolytoxin. […] Cell numbers were determined by hemacytometer counts. The IC50 for each cell line was determined by plotting the logarithm of the tolytoxin concentration versus growth (cell number as a percentage of the control) of the treated cells.

Series [4] relates to L1210 murine leukemia cells. Nature of the series: Cell proliferation assay (cell counts), L1210. The format is cell-based. The following applies: Mus musculus, L1210, 72 h. The procedure: as §1, §2
(§4) Cultures were exposed to graded concentrations of tolytoxin and reincubated for 72 hours in the presence of tolytoxin. Three dishes were used for each treatment. Cell numbers were determined by hemacytometer counts. The IC50 for each cell line was determined by plotting the logarithm of the tolytoxin concentration versus growth (cell number as a percentage of the control) of the treated cells.
(§5) The other new scytophycin compounds are also potent cytotoxins. For example, the IC50 of the scytophycins against KB human epidermoid carcinoma, LoVo human adenocarcinoma, and L1210 murine leukemia were determined using the cell proliferation assay described for tolytoxin.

Series [5] concerns HBL-100 human breast cells. Nature of the series: Cell proliferation assay (cell counts), HBL-100. The format is cell-based. The following applies: Table 5, 72 hours. The procedure:
as §1, §2, §3

Series [6] concerns Human ovarian carcinoma cells (SKOV3). Nature of the series: cells. Type of series: cell-based. The following applies: SK-OV-3, 48 h, read-out: IC50 SKOV3. The procedure: Human ovarian carcinoma cells (SKOV3) and a subline made multi-drug resistant by slowly increasing vinblastine in the culture medium over the course of many passages (SKVLB) were grown in Earle's basal medium (BME) containing 10% fetal calf serum. The SKVLB cells were maintained in the presence of 1 µg/mL vinblastine. The multi-drug resistant cell line is resistant to adriamycin, vinblastine, actinomycin D, and colchicine.
Cell proliferation was estimated by measurement of protein content of the cultured cells, as described by Skehan et al. (1990). Cells were plated into 24-well plates at approximately 10% confluency in BME and were allowed to attach and recover for at least 24 hours. The cells were then treated with the scytophycins or appropriate control for 48 hours. After the incubation, the medium was removed from each well and cells fixed by addition of 10% (w/v) trichloroacetic acid (TCA) (4° C.). The cells were incubated at 4° C. for one hour and then washed five times with water to remove TCA. The TCA-fixed cells were then stained for 30 minutes with 0.4% (w/v) sulforhodamine B prepared in 1% acetic acid. Following the staining, the cell layers were washed four times with 1% acetic acid. The cell layer was dissolved in 10 mM unbuffered tris-hydroxymethylaminomethane base. Absorbance of the solution was determined at 564 nm. Antiproliferative activity is manifested as decreased production of cellular protein.

The test system of series [7] is COLO-201 human colon adenocarcinoma cells. Nature of the series: Cell proliferation assay (cell counts), COLO-201. The following applies: Table 5, 72 hours. Type of series: cell-based. The procedure: as §1, §2, §3
For series [8], the system named is HL-60 human promyelocytic leukemia cells. Nature of the series: Cell proliferation assay (cell counts), HL-60. Type of series: cell-based. To be noted: Table 5, 72 hours. The procedure:
as §1, §2, §3

Series [9] deals with LoVo human adenocarcinoma cells. Nature of the series: Cell proliferation assay (cell counts), LoVo. Type of series: cell-based. The following applies: 72 h. The procedure: as §1, §2, §4, §5
The subject of series [10] is T47-D human ductal carcinoma cells. Nature of the series: Cell proliferation assay (cell counts), T47-D. The format is cell-based. To be noted: T47D, Table 5, 72 hours. The procedure:
as §1, §2, §3

The test system of series [11] is Bipolaris incurvata 2118. Nature of the series: Antifungal agar dilution. The format is cell-based. To be noted: Bipolaris incurvata, 2118, 48 h. The procedure:
(§6) The new scytophycins are also useful as antifungal agents. Antimicrobial activity was determined by the agar dilution method. Tolytoxin was dissolved in 95% ethanol for addition to cooled, molten agar. Nystatin was solubilized in DMSO and diluted in distilled water. Appropriate solvent controls were also prepared. Fungal cultures were grown on Saboraud dextrose agar. Assay plates were incubated for 48 hours post-inoculation. Yeasts and filamentous fungi were incubated at 25° C.

The test system of series [12] is Colletotrichum coccodes 1809. Nature of the series: Antifungal agar dilution. The format is cell-based. To be noted: Colletotrichum coccodes, 1809, 48 h. The procedure:
as §6
For orientation: In agar dilution, organisms are placed on agar that contains the substance at set levels.

For series [13], the system named is Trichophyton mentagrophytes A23. Nature of the series: Antifungal agar dilution. The format is cell-based. The following applies: Trichophyton mentagrophytes, A23, 48 h. The procedure: as §6
The test system of series [14] is Phyllosticta capitalensis 689-5. Nature of the series: Antifungal agar dilution. The format is cell-based. The following applies: Phyllosticta capitalensis, 6895, 48 h. The procedure: as §6
The test system of series [15] is Rhizoctonia solani 1165. Nature of the series: Antifungal agar dilution. Type of series: cell-based. The following applies: Rhizoctonia solani, 1165, 48 h. The procedure: as §6
For series [16], the system named is Calonectria critalarae 1809. Nature of the series: Antifungal agar dilution. To be noted: 48 h. Type of series: cell-based. The procedure:
as §6

The test system of series [17] is Aspergillus oryzae. Nature of the series: Antifungal agar dilution. The format is cell-based. To be noted: 48 h. The procedure:
as §6

For series [18], the system named is Penicillium notatum. Nature of the series: Antifungal agar dilution. The following applies: Penicillium chrysogenum, 48 h. Type of series: cell-based. The procedure:
as §6

In series [19] the test system is Alternaria alternata 1715. Nature of the series: Antifungal agar dilution. To be noted: Alternaria alternata, 1715, 48 h. Type of series: cell-based. The procedure: as §6
Series [20] concerns KATO-III human gastric carcinoma cells. Nature of the series: Cell proliferation assay (cell counts), KATO-III. The format is cell-based. The following applies: Table 5, 72 hours. The procedure: as §1, §2, §3

For orientation: LD50 means the dose at which mortality reaches 50%. Lower therefore signals greater toxicity. In general, IC50 refers to the concentration that inhibits the measured activity by half. What is called MIC is the least concentration at which growth counts as inhibited. In series [1], `COC1CC2C=CCC(CC(OC)C3(CO3)C(OC)CC(OC)C(C)C(C(C)C(O)C(C)CCC(=O)C(C)C(OC)C(C)/C=C/N(C)C=O)OC(=O)/C=C/C(C)=C/C1O)O2` (stereo not drawn) [Tolytoxin, 6-hydroxy-7-O-methylscytophycin B] yielded an LD50 of approximately 1.5 mg/kg. For the same compound, in series [2] (4 nM, 1 hour), the “cell shape and surface appearance” value was “fibroblastoid cellular shape and the appearance of blebs or zeioses on the cell surfaces; also recorded: the cells have lost their normal extended fibroblastoid shape, and the appearance of blebs or zeioses on the cell surface is apparent”. Moreover, in [2] (8nM, 4 hours), the “migration of cell nucleus” value was “the cell nuclei have migrated out of their respective cell bodies; also recorded: The cell nucleus has migrated outside the body of the cell and now occupies one of the zeiotic processes”. The half-maximal inhibitory concentration (IC50) in [3] was determined as 2.3 nM; in [4], 3.9 nM; in series [5], 2.4 nM; in series [6] it was 25 nM; in series [7] it was 0.52 nM; in [8], 4.8 nM. In addition, the IC50 in [9] came to 8.4 nM; in [10], 4.9 nM; in [20], 0.78 nM. Further, the MIC in [11] turned out to be 2 nM (≈ 1.7 ng/mL); in [12] it was 4 nM (≈ 3.4 ng/mL); in [13] it was 8 nM (≈ 6.8 ng/mL); in [14], 0.5 nM (≈ 0.425 ng/mL); in [15], 0.25 nM (≈ 0.213 ng/mL); in series [16], 2 nM (≈ 1.7 ng/mL). Besides, the figures for the MIC in [17], in series [18] and in [19] were 0.5 nM (≈ 0.425 ng/mL), 0.25 nM (≈ 0.213 ng/mL) and 4 nM (≈ 3.4 ng/mL), respectively.
